Source: the supplement of paper PMC10307832

Key:
Assay in all cases: relative viability (nuclei count vs DMSO), 5 days (fraction); higher = more cells survive
Dovitinib + Vorinostat = compound: CN1CCN(c2ccc3nc(-c4c(N)c5c(F)cccc5[nH]c4=O)[nH]c3c2)CC1 [Dovitinib] + O=C(CCCCCCC(=O)Nc1ccccc1)NO [Vorinostat] (partner 1 µM)
Outline: (§1)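 Dosing by pin tool came one day after lung cancer cell lines were seeded in 1536-well plates, using either one drug or a fixed anchor-drug dose plus five library-drug doses (not always all listed) in √10 steps. After 5 days, nuclei were counted on 4× images. Relative viability is treated-well nuclei count divided by vehicle-well nuclei count, and values are medians of duplicate plates.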

Dovitinib + Foretinib = compound: CN1CCN(c2ccc3nc(-c4c(N)c5c(F)cccc5[nH]c4=O)[nH]c3c2)CC1 [Dovitinib] + COc1cc2c(Oc3ccc(NC(=O)C4(C(=O)Nc5ccc(F)cc5)CC4)cc3F)ccnc2cc1OCCCN1CCOCC1 [Foretinib] (partner 0.25 µM)
Outline: as §1

Dovitinib + Pictilisib = compound: CN1CCN(c2ccc3nc(-c4c(N)c5c(F)cccc5[nH]c4=O)[nH]c3c2)CC1 [Dovitinib] + CS(=O)(=O)N1CCN(Cc2cc3nc(-c4cccc5[nH]ncc45)nc(N4CCOCC4)c3s2)CC1 [Pictilisib] (partner 1 µM)
Outline: as §1

Dovitinib + AZD7762 = compound: CN1CCN(c2ccc3nc(-c4c(N)c5c(F)cccc5[nH]c4=O)[nH]c3c2)CC1 [Dovitinib] + NC(=O)Nc1cc(-c2cccc(F)c2)sc1C(=O)N[C@H]1CCCNC1 [AZD7762] (partner 0.2 µM)
Outline: as §1

Cell Line	relative viability (Dovitinib + Vorinostat; first compound 0.02 µM)	relative viability (Dovitinib + Vorinostat; first compound 0.06325 µM)	relative viability (Dovitinib + Vorinostat; first compound 0.2 µM)	relative viability (Dovitinib + Vorinostat; first compound 0.6325 µM)	relative viability (Dovitinib + Vorinostat; first compound 2 µM)	relative viability (Dovitinib + Foretinib; first compound 0.02 µM)	relative viability (Dovitinib + Foretinib; first compound 0.06325 µM)	relative viability (Dovitinib + Foretinib; first compound 0.2 µM)	relative viability (Dovitinib + Foretinib; first compound 0.6325 µM)	relative viability (Dovitinib + Foretinib; first compound 2 µM)	relative viability (Dovitinib + Pictilisib; first compound 0.02 µM)	relative viability (Dovitinib + Pictilisib; first compound 0.06325 µM)	relative viability (Dovitinib + Pictilisib; first compound 0.2 µM)	relative viability (Dovitinib + Pictilisib; first compound 0.6325 µM)	relative viability (Dovitinib + Pictilisib; first compound 2 µM)	relative viability (Dovitinib + AZD7762; first compound 0.02 µM)	relative viability (Dovitinib + AZD7762; first compound 0.06325 µM)	relative viability (Dovitinib + AZD7762; first compound 0.2 µM)	relative viability (Dovitinib + AZD7762; first compound 0.6325 µM)	relative viability (Dovitinib + AZD7762; first compound 2 µM)
NCI-H2228	0.559	0.81	0.402	0.79	0.6	0.9	0.832	0.928	1.08	0.915	0.317	0.345	0.335	0.462	0.271	–	–	–	–	–
NCI-H2087	0.817	0.79	0.685	0.837	0.803	1.19	1.15	1.14	1.05	1.16	1.05	0.907	0.845	0.907	0.892	1.35	1.38	1.27	1.29	1.31
LU99A	0.456	0.555	0.46	0.615	0.624	0.714	0.782	0.79	0.812	0.932	0.312	0.323	0.336	0.359	0.34	0.294	0.469	0.358	0.277	0.387
NCI-H1355	0.671	0.638	0.628	0.695	0.704	0.943	0.932	0.713	0.976	0.903	0.459	0.305	0.478	0.479	0.48	0.695	0.745	0.746	0.703	0.727
NCI-H520	0.765	0.698	0.62	0.656	0.643	0.698	0.894	0.818	0.733	0.698	0.203	0.247	0.337	0.269	0.227	–	–	–	–	–
NCI-H661	0.733	0.837	0.826	0.938	0.843	1.05	1	1.08	1.07	1.12	0.427	0.465	0.455	0.427	0.359	–	–	–	–	–
NCI-H650	0.368	0.414	0.58	0.395	0.774	0.955	1.02	1.1	1	1.15	0.867	0.789	0.931	0.758	1.01	1.05	1.35	0.951	1.08	1
NCI-H647	0.52	0.658	0.659	0.434	0.851	1.23	1.15	1.39	1.17	1.26	0.285	0.413	0.457	0.414	0.419	0.42	0.404	0.493	0.522	0.398
SW 1573	0.65	0.908	0.6	0.702	1.02	0.837	0.913	0.877	0.88	0.885	0.487	0.545	0.483	0.382	0.512	–	–	–	–	–
COR-L23	0.431	0.505	0.551	0.379	0.462	0.93	1	0.99	0.952	1.04	0.733	0.75	0.813	0.838	0.904	–	–	–	–	–
SK-LU-1	0.753	0.913	0.759	0.715	0.805	0.875	0.904	0.789	0.773	0.845	0.64	0.657	0.513	0.73	0.576	–	–	–	–	–
NCI-H1650	0.569	0.432	0.785	0.703	0.554	1.44	1.21	0.998	0.819	0.972	0.62	0.577	0.654	0.608	0.678	–	–	–	–	–
UMC-11	0.449	0.422	0.478	0.383	0.431	1.05	1.04	1.01	1	1.05	0.806	0.783	0.85	0.85	0.735	–	–	–	–	–
SK-MES-1	1.08	1.13	1.17	1.09	1.12	0.895	0.993	0.927	0.86	0.919	0.354	0.359	0.349	0.36	0.327	–	–	–	–	–
NCI-H2009	0.72	0.744	0.747	0.736	0.829	1.16	1.25	1.22	1.15	1.27	0.781	0.74	0.795	0.854	0.725	–	–	–	–	–
NCI-H2023	0.532	0.745	0.818	0.683	0.579	0.707	0.935	0.788	0.868	0.857	0.216	0.206	0.236	0.261	0.212	–	–	–	–	–
COR-L 105	0.867	0.801	0.833	0.69	0.794	0.921	0.993	1.2	1.14	1.31	0.362	0.356	0.365	0.439	0.529	–	–	–	–	–
NCI-H1563	–	–	–	–	–	0.983	0.977	0.975	0.898	0.953	0.631	0.629	0.685	0.635	0.672	–	–	–	–	–
EBC-1	–	–	–	–	–	0.105	0.0996	0.103	0.0933	0.115	0.422	0.35	0.336	0.342	0.453	–	–	–	–	–
Calu-6	–	–	–	–	–	0.925	0.861	0.853	0.874	0.912	0.931	0.885	0.913	0.893	1	–	–	–	–	–
HCC-44	1.08	1.1	1.08	1.09	1.08	–	–	–	–	–	0.516	0.594	0.642	0.62	0.591	0.979	0.97	1.03	0.955	0.975
